What was measured:
Experiment in all cases: relative viability (nuclei count vs DMSO), 5 days (fraction); higher = more cells survive
NCI-H1792 = system: NCI-H1792
In short: (§1)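 Five library-drug doses in √10 steps were combined with a fixed anchor-drug dose, or a single drug was given alone, by pin tool to lung cancer cell lines in 1536-well plates the day after seeding. Nuclei were stained and counted after 5 days. Relative viability is the nuclei count in treated wells over that in vehicle wells, taken as the median of duplicate plates.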

NCI-H1993 = system: NCI-H1993
In short: as §1

HCC-15 = system: HCC-15
In short: as §1

NCI-H838 = system: NCI-H838
In short: as §1

NCI-H358 = system: NCI-H358
In short: as §1

COR-L23 = system: COR-L23
In short: as §1

NCI-H647 = system: NCI-H647
In short: as §1

NCI-H1395 = system: NCI-H1395
In short: as §1

NCI-H1734 = system: NCI-H1734
In short: as §1

NCI-H2009 = system: NCI-H2009
In short: as §1

NCI-H1755 = system: NCI-H1755
In short: as §1

NCI-H1793 = system: NCI-H1793
In short: as §1

UMC-11 = system: UMC-11
In short: as §1

HOP-62 = system: HOP-62
In short: as §1

NCI-H522 = system: NCI-H522
In short: as §1

NCI-H2170 = system: NCI-H2170
In short: as §1

COR-L 105 = system: COR-L 105
In short: as §1

NCI-H1355 = system: NCI-H1355
In short: as §1

SK-MES-1 = system: SK-MES-1
In short: as §1

NCI-H2228 = system: NCI-H2228
In short: as §1

NCI-H2347 = system: NCI-H2347
In short: as §1

HARA = system: HARA
In short: as §1

Compound `COc1cc2nccc(Oc3ccc(NC(=O)Nc4cc(C)on4)c(Cl)c3)c2cc1OC` [Tivozanib] + Nc1nc2[nH]cc(CCc3ccc(C(=O)N[C@@H](CCC(=O)O)C(=O)O)cc3)c2c(=O)[nH]1 [Pemetrexed] (partner 0.2 µM) has a relative viability (NCI-H1792; first compound 0.005 µM) of 0.865, a relative viability (NCI-H1792; first compound 0.01581 µM) of 0.792 and a relative viability (NCI-H1792; first compound 0.05 µM) of 1.02. For the same compound, the relative viability (NCI-H1792; first compound 0.5 µM) was 1, the relative viability (NCI-H1993; first compound 0.005 µM) was 0.572 and the relative viability (NCI-H1993; first compound 0.01581 µM) was 0.467. For the same compound, the relative viability (NCI-H1993; first compound 0.05 µM) was 0.674, the relative viability (NCI-H1993; first compound 0.1581 µM) was 0.499 and the relative viability (NCI-H1993; first compound 0.5 µM) was 0.662. For the same compound, the relative viability (HCC-15; first compound 0.005 µM) was 0.21, the relative viability (HCC-15; first compound 0.01581 µM) was 0.224 and the relative viability (HCC-15; first compound 0.05 µM) was 0.235. For the same compound, the relative viability (HCC-15; first compound 0.1581 µM) was 0.226, the relative viability (HCC-15; first compound 0.5 µM) was 0.238 and the relative viability (NCI-H838; first compound 0.005 µM) was 0.242. It also gave a relative viability (NCI-H838; first compound 0.01581 µM) of 0.253, a relative viability (NCI-H838; first compound 0.05 µM) of 0.252 and a relative viability (NCI-H838; first compound 0.1581 µM) of 0.257. For the same compound, the relative viability (NCI-H838; first compound 0.5 µM) was 0.22, the relative viability (NCI-H358; first compound 0.005 µM) was 0.181 and the relative viability (NCI-H358; first compound 0.01581 µM) was 0.18. It also gave a relative viability (NCI-H358; first compound 0.05 µM) of 0.161, a relative viability (NCI-H358; first compound 0.1581 µM) of 0.175 and a relative viability (NCI-H358; first compound 0.5 µM) of 0.176. For the same compound, the relative viability (COR-L23; first compound 0.005 µM) was 0.193, the relative viability (COR-L23; first compound 0.01581 µM) was 0.192 and the relative viability (COR-L23; first compound 0.05 µM) was 0.203. For the same compound, the relative viability (COR-L23; first compound 0.1581 µM) was 0.206, the relative viability (COR-L23; first compound 0.5 µM) was 0.199 and the relative viability (NCI-H647; first compound 0.005 µM) was 0.155. The relative viability (NCI-H647; first compound 0.01581 µM) was 0.207, the relative viability (NCI-H647; first compound 0.05 µM) was 0.152 and the relative viability (NCI-H647; first compound 0.1581 µM) was 0.189. The relative viability (NCI-H647; first compound 0.5 µM) was 0.149, the relative viability (NCI-H1395; first compound 0.005 µM) was 0.89 and the relative viability (NCI-H1395; first compound 0.01581 µM) was 1.02. For the same compound, the relative viability (NCI-H1395; first compound 0.05 µM) was 0.938, the relative viability (NCI-H1395; first compound 0.1581 µM) was 0.775 and the relative viability (NCI-H1395; first compound 0.5 µM) was 0.579. It also gave a relative viability (NCI-H1734; first compound 0.005 µM) of 0.426, a relative viability (NCI-H1734; first compound 0.01581 µM) of 0.39 and a relative viability (NCI-H1734; first compound 0.05 µM) of 0.404. The relative viability (NCI-H1734; first compound 0.1581 µM) was 0.402, the relative viability (NCI-H1734; first compound 0.5 µM) was 0.404 and the relative viability (NCI-H2009; first compound 0.005 µM) was 0.994. The relative viability (NCI-H2009; first compound 0.01581 µM) was 1.04, the relative viability (NCI-H2009; first compound 0.05 µM) was 0.995 and the relative viability (NCI-H2009; first compound 0.1581 µM) was 1.06. For the same compound, the relative viability (NCI-H2009; first compound 0.5 µM) was 0.933, the relative viability (NCI-H1755; first compound 0.005 µM) was 0.376 and the relative viability (NCI-H1755; first compound 0.01581 µM) was 0.437. For the same compound, the relative viability (NCI-H1755; first compound 0.05 µM) was 0.571, the relative viability (NCI-H1755; first compound 0.1581 µM) was 0.468 and the relative viability (NCI-H1755; first compound 0.5 µM) was 0.361. The relative viability (NCI-H1793; first compound 0.005 µM) was 0.643, the relative viability (NCI-H1793; first compound 0.01581 µM) was 0.854 and the relative viability (NCI-H1793; first compound 0.05 µM) was 1.04. It also gave a relative viability (NCI-H1793; first compound 0.5 µM) of 0.999, a relative viability (UMC-11; first compound 0.005 µM) of 0.807 and a relative viability (UMC-11; first compound 0.01581 µM) of 0.698. For the same compound, the relative viability (UMC-11; first compound 0.05 µM) was 0.718, the relative viability (UMC-11; first compound 0.1581 µM) was 0.619 and the relative viability (UMC-11; first compound 0.5 µM) was 0.755. The relative viability (HOP-62; first compound 0.005 µM) was 0.353, the relative viability (HOP-62; first compound 0.01581 µM) was 0.301 and the relative viability (HOP-62; first compound 0.05 µM) was 0.245. For the same compound, the relative viability (HOP-62; first compound 0.1581 µM) was 0.36, the relative viability (HOP-62; first compound 0.5 µM) was 0.232 and the relative viability (NCI-H522; first compound 0.005 µM) was 1.03. It also gave a relative viability (NCI-H522; first compound 0.01581 µM) of 1.1, a relative viability (NCI-H522; first compound 0.05 µM) of 1.04 and a relative viability (NCI-H522; first compound 0.1581 µM) of 0.824. It also gave a relative viability (NCI-H522; first compound 0.5 µM) of 1.15, a relative viability (NCI-H2170; first compound 0.005 µM) of 0.24 and a relative viability (NCI-H2170; first compound 0.01581 µM) of 0.262. It also gave a relative viability (NCI-H2170; first compound 0.05 µM) of 0.56, a relative viability (NCI-H2170; first compound 0.5 µM) of 0.255 and a relative viability (COR-L 105; first compound 0.005 µM) of 0.919. For the same compound, the relative viability (COR-L 105; first compound 0.01581 µM) was 1.08, the relative viability (COR-L 105; first compound 0.05 µM) was 1.34 and the relative viability (COR-L 105; first compound 0.1581 µM) was 1.13. It also gave a relative viability (COR-L 105; first compound 0.5 µM) of 1.27, a relative viability (NCI-H1355; first compound 0.005 µM) of 1.03 and a relative viability (NCI-H1355; first compound 0.01581 µM) of 1.01. For the same compound, the relative viability (NCI-H1355; first compound 0.05 µM) was 1.04, the relative viability (NCI-H1355; first compound 0.1581 µM) was 0.763 and the relative viability (NCI-H1355; first compound 0.5 µM) was 1.07. The relative viability (SK-MES-1; first compound 0.005 µM) was 0.89, the relative viability (SK-MES-1; first compound 0.01581 µM) was 0.956 and the relative viability (SK-MES-1; first compound 0.05 µM) was 1.13. It also gave a relative viability (SK-MES-1; first compound 0.1581 µM) of 0.948, a relative viability (SK-MES-1; first compound 0.5 µM) of 0.994 and a relative viability (NCI-H2228; first compound 0.005 µM) of 0.31. For the same compound, the relative viability (NCI-H2228; first compound 0.01581 µM) was 0.32, the relative viability (NCI-H2228; first compound 0.05 µM) was 0.369 and the relative viability (NCI-H2228; first compound 0.1581 µM) was 0.346. The relative viability (NCI-H2228; first compound 0.5 µM) was 0.315, the relative viability (NCI-H2347; first compound 0.005 µM) was 0.4 and the relative viability (NCI-H2347; first compound 0.01581 µM) was 0.458. For the same compound, the relative viability (NCI-H2347; first compound 0.05 µM) was 0.388, the relative viability (NCI-H2347; first compound 0.1581 µM) was 0.427 and the relative viability (NCI-H2347; first compound 0.5 µM) was 0.487. It also gave a relative viability (HARA; first compound 0.005 µM) of 0.275, a relative viability (HARA; first compound 0.01581 µM) of 0.259 and a relative viability (HARA; first compound 0.05 µM) of 0.249. For the same compound, the relative viability (HARA; first compound 0.1581 µM) was 0.243 and the relative viability (HARA; first compound 0.5 µM) was 0.245.

Reference: the supplement of paper PMC10307832
